Experimental findings from patent publication US20240262801A1, “COMPOUNDS HAVING 5-(2-FLUORO-6-HYDROXYPHENYL)-1,2,5-THIADIAZOLIDIN-3-ONE 1,1-DIOXIDE AS INHIBITORS OF PROTEIN KINASE PHOSPHATASE ENZYMES” (Ness Therapeutics, Inc., priority 2021, published 2024) are described below.

Experiment [1] deals with B16F10 mouse melanoma cells. As to the kind of experiment: Tumor cells B16F10 cellular growth IFNγ-induced inhibition assay (CellTiter-Glo). To be noted: for IC50: B16-F10, 72 h, 3 days incubation; for inhibition at 100 µM: B16-F10, B16F10, 100 μM compound. It counts as cell-based. As for the experimental part:
B16F10 mouse melanoma cells (ATCC Cat #CRL-6475) were seeded at a density of 500 cells per well in a 384-well clear bottom plate (Corning Cat #3712, Corning, N.Y.) in 40 μL total volume of DMEM+10% FBS (PanEco Cat #C420, Russia and Sigma Cat #F4135, St. Louis, Mo.). Cells were allowed to adhere overnight at 37° C., 5% CO2. On the following day, 250× solutions of compounds in DMSO (Sigma Cat #D2650) were prepared into […] plate (Diamond Well Plate, Axigen, Cat #P-384-120SQ-C-S) (final concentration of 1×) and DMSO only controls were included. Dilution Plate (Diamond Well Plate (Axigen, Cat #P-384-120SQ-C-S) was prepared by adding 49 μL of culture medium per well: half of the plate with culture medium only, half with culture medium+IFNγ (5 ng/ml). A 1 μL aliquot of 250× compounds ([…] plate) was added to 49 μL of culture medium (Dilution plate), then a 10 μL aliqut of the mixture was transferred to Reaction plate with 40 μL of cells followed by centrifugation at 240 g for 1 min. After 3 days of incubation, 10 μL of CellTiter-Glo (Promega) was added to the cells, plates were centrifuged at 240 g for 1 min, and luminescence signal was measured. For each compound, the percent growth inhibition at every compound dose level was calculated relative to the “DMSO/with IFNγ” control and used to determine the IC50.

For experiment [2], the target named is T1, GST-tagged PTPN2 protein (Homo sapiens, UniProt P17706).
T1 construct: purchased ActiveMotif 31592
T1 sequence (P17706 with tags, fused parts or gaps): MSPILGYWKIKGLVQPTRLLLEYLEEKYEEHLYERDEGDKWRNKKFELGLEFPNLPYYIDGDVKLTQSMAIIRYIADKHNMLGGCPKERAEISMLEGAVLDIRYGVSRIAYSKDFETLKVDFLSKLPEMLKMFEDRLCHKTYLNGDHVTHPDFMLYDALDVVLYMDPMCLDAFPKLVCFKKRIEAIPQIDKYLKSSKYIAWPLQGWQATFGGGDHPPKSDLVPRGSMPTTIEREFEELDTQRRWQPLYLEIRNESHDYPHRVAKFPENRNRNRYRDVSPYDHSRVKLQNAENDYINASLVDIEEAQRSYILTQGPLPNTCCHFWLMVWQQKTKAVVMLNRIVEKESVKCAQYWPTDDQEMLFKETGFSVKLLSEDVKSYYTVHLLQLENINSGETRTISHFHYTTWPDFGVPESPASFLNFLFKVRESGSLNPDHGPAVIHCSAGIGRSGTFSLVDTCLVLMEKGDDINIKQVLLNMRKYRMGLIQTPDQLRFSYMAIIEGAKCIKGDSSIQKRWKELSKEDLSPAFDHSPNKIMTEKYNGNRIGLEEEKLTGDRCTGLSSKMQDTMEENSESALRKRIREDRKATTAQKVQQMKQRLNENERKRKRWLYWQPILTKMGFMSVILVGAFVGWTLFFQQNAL
As to the kind of experiment: Primary assay of PTPN2 enzymatic activity inhibition (DiFMUP fluorescence). The format is biochemical. Particulars: DiFMUP substrate 2 μM, 60 min at RT. The procedure: Compound activity was determined using GST-tagged PTPN2 protein (Cat #31592, ActiveMotif) (SEQ ID NO: 1) in an in vitro enzymatic reaction. The enzymatic reaction was carried out in assay buffer (50 mM HEPES Na salt pH 7.2-7.4, 2 mM EDTA, 100 mM NaCl, 52 ng/μL BSA, and 6 mM DTT). The compounds were dispensed on a 384 well Diamond Well Plate (Axigen, Cat #P-384-120SQ-C-S) using the Biomek FX liquid handling system at 100× solutions of compounds in DMSO. 2× PTPN2 (final concentration 0.004 ng/μL) was prepared in 1× Assay buffer and 25 μL of mixture per well was added into Reaction plate (Optiplate, black, Perkin Elmer, Cat #6007270). Add 25 μL of 1× buffer to Ctrl- (Substrate w/o PTPN2) wells followed by centrifugation at 100 g for 1 min. Next step the Compounds were added to Reaction plate using Biomek station via following steps: 3 ul of 100× compounds (in DMSO) were mixed with 27 μL of Assay Buffer, then 5 μL of this mixture was added to Reaction plate with 25 μL of PTPN2 Mix. Plates were centrifuged for 1 min at 100 g and incubated for another 10 minutes at room temperature. Finally, 20 μL of 2.5× Substrate (DiFUMP, Invitrogen™ Cat #D6567) mix was added into appropriate wells of Reaction plate to the final concentration of 2 μM, plate was centrifuged at 100 g for 1 min followed by incubation at RT for 60 min, and the Fluorescence Intensity was measured using a Microplate Reader (ClarioStar Plus, excitation 360 nm, emission 450 nm). The % inhibition was then used to calculate the IC50 values. The IC50 values are shown in Table A1, wherein “A” corresponds to IC50<5.0 nm, “B” corresponds to 5.0 nm≤IC50<10.0 nm, “C” corresponds to 10.0 nm≤IC50<50.0 nm, “D” corresponds to 50.0 nm≤IC50<100.0 nm, and “E” corresponds to 100.0 nm≤IC50<500.0 nm, and “F” corresponds to 500.0 nm≤IC50.

Setting [3] is: B16F10, + IFNγ, read-out: IC50 + IFNγ.
Setting [4] is: B16F10, no IFNγ, read-out: IC50 no IFNγ.
Where [5] appears, read: + IFNγ, read-out: % Growth Inhibition at 100 μM + IFNγ.
Where [6] appears, read: no IFNγ, read-out: % Growth Inhibition at 100 μM no IFNγ.

Like-named read-outs stand apart in the source and are kept apart here.

The IC50 is the concentration that gives 50% inhibition. One may read the inhibition as the drop in the measured response relative to a control, in per cent. For `O=C1CN(c2c(O)cc(-c3cc(F)cc(F)c3)cc2F)S(=O)(=O)N1` [Example 4, 5-(3,3′,5′-trifluoro-5-hydroxybiphenyl-4-yl)-1,2,5-thiadiazolidin-3-one 1,1-dioxide], the IC50 in experiment [1] (setting [3]) was ≥ 100 µM; in experiment [1] (setting [4]), ≥ 100 µM; in experiment [2] it was 0.1 to 0.5 µM. Besides, the inhibition at 100 µM in experiment [1] (setting [5]) and in experiment [1] (setting [6]) was 10 to 50% in each case.

Regarding `COc1cccc(-c2cc(O)c(N3CC(=O)NS3(=O)=O)c(F)c2)c1` [Example 1, 5-(3-fluoro-5-hydroxy-3′-methoxybiphenyl-4-yl)-1,2,5-thiadiazolidin-3-one 1,1-dioxide], the results for the IC50 in experiment [1] (setting [3]), in experiment [1] (setting [4]) and in experiment [2] were ≥ 100 µM, ≥ 100 µM and 0.1 to 0.5 µM, respectively. Also, the inhibition at 100 µM in experiment [1] (setting [5]) and in experiment [1] (setting [6]) was 10 to 50% each time.

For `O=C1CN(c2c(O)cc(-c3cccc(NC4CCN(S(=O)(=O)Cc5ccccc5)CC4)c3)cc2F)S(=O)(=O)N1` [Example 12, 5-(3′-{[1-(benzylsulfonyl)piperidin-4-yl]amino}-3-fluoro-5-hydroxybiphenyl-4-yl)-1,2,5-thiadiazolidin-3-one 1,1-dioxide], the IC50 in experiment [1] (setting [3]) is ≥ 100 µM; in experiment [1] (setting [4]), ≥ 100 µM; in experiment [2], 0.1 to 0.5 µM. Moreover, the inhibition at 100 µM in experiment [1] (setting [5]) and in experiment [1] (setting [6]) was 10 to 50% in each case.

As for `Cc1ccccc1NC(=O)Nc1cc(O)c(N2CC(=O)NS2(=O)=O)c(F)c1` [Example 39, 1-[4-(1,1-dioxido-4-oxo-1,2,5-thiadiazolidin-2-yl)-3-fluoro-5-hydroxyphenyl]-3-(2-methylphenyl)urea], the IC50 is 50 to 100 µM in experiment [1] (setting [3]), ≥ 100 µM in experiment [1] (setting [4]) and 0.01 to 0.05 µM in experiment [2]. Moreover, the inhibition at 100 µM in experiment [1] (setting [5]) was in the range of 50 to 75%; in experiment [1] (setting [6]), 10 to 50%.

Take `CC(C)(C)OC(=O)N1CCCC(NC(=O)Nc2cc(O)c(N3CC(=O)NS3(=O)=O)c(F)c2)C1` (stereo not shown) [Example 106, tert-butyl 3-[[3-fluoro-5-hydroxy-4-(1,1,4-trioxo-1,2,5-thiadiazolidin-2-yl)phenyl]carbamoylamino]piperidine-1-carboxylate]: the IC50 in experiment [1] (setting [3]) is 50 to 100 µM; in experiment [1] (setting [4]) it was ≥ 100 µM; in experiment [2] it was < 0.005 µM. The inhibition at 100 µM in experiment [1] (setting [5]) lay within 50 to 75%; in experiment [1] (setting [6]), 10 to 50%.

As for `CC(C)(C)OC(=O)N1CCC(NC(=O)Nc2cc(O)c(N3CC(=O)NS3(=O)=O)c(F)c2)CC1` [Example 98, tert-butyl 4-[[3-fluoro-5-hydroxy-4-(1,1,4-trioxo-1,2,5-thiadiazolidin-2-yl)phenyl]carbamoyl-amino]piperidine-1-carboxylate], the IC50 in experiment [1] (setting [3]) was ≥ 100 µM; in experiment [1] (setting [4]), ≥ 100 µM; in experiment [2] it was 0.01 to 0.05 µM. Moreover, the inhibition at 100 µM in experiment [1] (setting [5]) and in experiment [1] (setting [6]) was 10 to 50% each time.

As to `CCCCS(=O)(=O)Nc1cc(O)c(N2CC(=O)NS2(=O)=O)c(F)c1` [Example 28, N-[4-(1,1-dioxido-4-oxo-1,2,5-thiadiazolidin-2-yl)-3-fluoro-5-hydroxyphenyl]butane-1-sulfonamide], the results for the IC50 in experiment [1] (setting [3]), in experiment [1] (setting [4]) and in experiment [2] were 50 to 100 µM, ≥ 100 µM and 0.1 to 0.5 µM, respectively. Also, the figures for the inhibition at 100 µM in experiment [1] (setting [5]) and in experiment [1] (setting [6]) were 50 to 75% and 10 to 50%, respectively.

For the compound `CC(C)CCNC(=O)Nc1cc(O)c(N2CC(=O)NS2(=O)=O)c(F)c1` [Example 62, 1-[4-(1,1-dioxido-4-oxo-1,2,5-thiadiazolidin-2-yl)-3-fluoro-5-hydroxyphenyl]-3-(3-methylbutyl)urea], the IC50 was < 5 µM in experiment [1] (setting [3]), ≥ 100 µM in experiment [1] (setting [4]) and 0.005 to 0.01 µM in experiment [2]. The inhibition at 100 µM in experiment [1] (setting [5]) was 75 to 100%; in experiment [1] (setting [6]) it was 10 to 50%.
